# From US20230158071A1, “TUMOR COMBINED IMMUNOTHERAPY” (CRAGE medical Co., Limited, priority 2018, published 2023)
# How the values were obtained:
# E0771ERVIII cells = assay: In vitro proliferation of E0771ERVIII cells (veliparib, JQ1); type: cell-based, mouse
# Excerpt: (§1) Another small molecule drug JQ1 is a BET bromodomain inhibitor acting on BRD4, it may induce tumor cell apoptosis (i.e., slow proliferation) by targeted inhibition of BRD4, thereby achieving anti-tumor effects.
# mouse CAR-T cells = assay: In vitro proliferation of mouse CAR-T cells (veliparib, JQ1); type: cell-based
# Excerpt: as §1
# CART cells = assay: LDH cell killing experiment with veliparib; type: cell-based; settings: 100 μM
# Excerpt: as §1
# mouse T cells = assay: In vitro proliferation of mouse T cells (JQ1); type: cell-based; settings: JQ1, dose-dependent manner
# Excerpt: as §1
Compound,concentration level that may affect the proliferation level of E0771ERVIII cells (E0771ERVIII cells; in vitro) [µM],concentration that may significantly inhibit the proliferation of E0771ERVIII cells (E0771ERVIII cells; in vitro) [µM],proliferation of mouse CAR-T cells (mouse CAR-T cells; veliparib at 20 μM or more),killing effect of CART cells (CART cells),proliferation of E0771ERVIII cells (E0771ERVIII cells; different concentrations of JQ1 for 48 h),"proliferation of CAR-T cells (mouse CAR-T cells; JQ1, dose-dependent manner)",proliferation of mouse T cells (mouse T cells)
C[C@]1(c2nc3c(C(N)=O)cccc3[nH]2)CCCN1 [veliparib],≥ 10,≥ 20,significantly inhibit,could not improve,,,
Cc1sc2c(c1C)C(c1ccc(Cl)cc1)=N[C@@H](CC(=O)OC(C)(C)C)c1nnc(C)n1-2 [JQ1],,,,,could not inhibit,significantly inhibit,significantly inhibit
